Results: patent US7235574B2, “Pentafluorosulfanyl compounds” (Hoffmann-La Roche Inc., priority 2004, dated 2007)

Legend:
HER2 = target: T1, HER2 (Homo sapiens, UniProt P04626); assay: Inhibition of HER2 Phosphorylation in Calu3 Tumor Cell Line; format: cell-based; conditions: Calu3 cells; for percentage of inhibition of HER2 phosphorylation compared with the reference compound: comparison with reference compound (Example 4, p. 88, WO 01/77107); for inhibition at 1 µM: Calu-3, read-out: Percent inhibition of HER2-phosphorylation
T1 construct: endogenous in cells; host or cells: Calu3 tumor cell line
Experimental: Inhibition of HER2 Phosphorylation in Calu3 Tumor Cell Line
2×10^5 Calu3 cells per well were plated in a 12-well plate. After 4 days cells were starved for 16 h in DMEM (Dulbecco's Modified Eagle Medium)/0.5% FCS/1% glutamine. During this time cells were incubated with […] of a compound according to this invention. Afterwards cells were lysed in lyses buffer containing 1% Triton, 10% glycerol, 1 mM EGTA, 1.5 mM MgCl2, 150 mM NaCl, 50 mM Hepes pH 7.5, 1 mM PMSF, 10 μg/mL aprotinin and […] orthovanadate. Cell lysates were analyzed on a SDS PAGE and after transfer to a nitrocellulose membrane detected with a rabbit antibody specifically recognizing the pY 1248 in HER2 (Cell Signaling). After incubation with an anti rabbit antibody coupled to POD (Peroxidase from Biorad, Munich, Germany) signals were detected by chemiluminescence (ECL, Amersham). Inhibition of HER2 phosphorylation is calculated as percentage of the DMSO treated control. This percentage is calculated according to the following formula: Inhibition in %=100−(Phosphorylated-HER2-Signal of Test Sample*100/Phosphorylated-HER2-Signal DMSO-control).

[1] = compound concentration 1 μM, 16 h incubation, pY 1248 in HER2, percentage of the DMSO treated control

T1 sequence (P04626 23-1255): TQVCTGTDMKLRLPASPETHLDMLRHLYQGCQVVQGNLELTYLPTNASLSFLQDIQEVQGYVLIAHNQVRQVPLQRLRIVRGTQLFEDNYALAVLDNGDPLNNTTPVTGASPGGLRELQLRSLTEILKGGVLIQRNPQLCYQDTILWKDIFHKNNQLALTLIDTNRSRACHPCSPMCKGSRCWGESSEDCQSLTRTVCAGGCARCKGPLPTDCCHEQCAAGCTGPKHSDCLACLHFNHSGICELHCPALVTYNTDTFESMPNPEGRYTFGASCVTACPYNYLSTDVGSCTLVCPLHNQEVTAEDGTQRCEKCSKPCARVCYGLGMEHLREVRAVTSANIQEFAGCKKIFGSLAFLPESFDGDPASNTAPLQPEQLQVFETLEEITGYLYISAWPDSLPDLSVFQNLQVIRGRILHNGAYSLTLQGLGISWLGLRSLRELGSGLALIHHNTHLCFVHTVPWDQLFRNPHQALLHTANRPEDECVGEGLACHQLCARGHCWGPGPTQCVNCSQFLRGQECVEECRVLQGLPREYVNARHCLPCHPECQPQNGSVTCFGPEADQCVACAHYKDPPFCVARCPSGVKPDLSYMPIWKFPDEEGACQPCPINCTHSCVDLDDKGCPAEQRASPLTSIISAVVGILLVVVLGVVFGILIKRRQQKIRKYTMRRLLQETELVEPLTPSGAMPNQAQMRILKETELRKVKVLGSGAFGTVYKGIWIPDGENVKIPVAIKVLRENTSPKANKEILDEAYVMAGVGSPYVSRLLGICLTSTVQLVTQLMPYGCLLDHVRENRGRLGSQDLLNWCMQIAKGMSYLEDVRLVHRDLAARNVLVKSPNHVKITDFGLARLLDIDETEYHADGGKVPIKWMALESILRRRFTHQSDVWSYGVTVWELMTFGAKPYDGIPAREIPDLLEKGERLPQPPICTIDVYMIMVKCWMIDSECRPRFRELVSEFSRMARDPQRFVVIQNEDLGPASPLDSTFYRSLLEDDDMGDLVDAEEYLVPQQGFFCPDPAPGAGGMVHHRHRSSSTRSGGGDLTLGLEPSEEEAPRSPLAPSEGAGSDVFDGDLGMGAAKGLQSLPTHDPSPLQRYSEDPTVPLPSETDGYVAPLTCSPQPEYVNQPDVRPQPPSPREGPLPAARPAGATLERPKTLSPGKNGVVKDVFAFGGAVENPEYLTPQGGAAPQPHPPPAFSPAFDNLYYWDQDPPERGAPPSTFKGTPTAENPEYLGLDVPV

With FS(F)(F)(F)(F)c1ccc(C=Cc2nc(COc3ccc(COCCn4ccnn4)cc3)co2)cc1 [example 9, 1-[2-(4-{2-[-4-(Pentafluorosulfanyl-phenyl)-vinyl]-oxazol-4-ylmethoxy}-benzyloxy)-ethyl]-1H-[1,2,3]-triazole] the “Percent inhibition of HER2-phosphorylation” value (HER2; [1]) was 52.9% and the “percentage of inhibition of HER2 phosphorylation compared with the reference compound” value (HER2) was “higher percentage of inhibition of phosphorylation”.
In the case of O=S(=O)(CCn1ccnn1)Cc1ccc(OCc2coc(/C=C/c3ccc(S(F)(F)(F)(F)F)cc3)n2)cc1 [example 11, 1-[2-(4-{2-[(E)-2-(4-Pentafluorosulfanyl-phenyl)-vinyl]-oxazol-4-ylmethoxy}-phenylmethanesulfonyl)-ethyl]-1H-[1,2,3]triazole], the “percentage of inhibition of HER2 phosphorylation compared with the reference compound” value (HER2) is reported as “higher percentage of inhibition of phosphorylation” and the inhibition at 1 µM (HER2; [1]) is reported as 59.7%.
With FS(F)(F)(F)(F)c1ccc(C=Cc2nc(COc3ccc(OCCCn4ccnn4)cc3)co2)cc1 [example 15, 1-[3-(4-{2-[2-(4-Pentafluorosulfanyl-phenyl)-vinyl]-oxazol-4-ylmethoxy}-phenoxy)-propyl]-1H-[1,2,3]triazole] the “percentage of inhibition of HER2 phosphorylation compared with the reference compound” value (HER2) was “higher percentage of inhibition of phosphorylation” and the inhibition at 1 µM (HER2; [1]) was 97.5%.
For FS(F)(F)(F)(F)c1ccc(C=Cc2nc(CNc3ccc(CCCCn4ccnn4)cc3)co2)cc1 [example 16, [4-(4-[1,2,3]Triazol-1-yl-butyl)-phenyl]-{2-[2-(4-pentafluorosulfanyl-phenyl)-vinyl]-oxazol-4-ylmethyl}-amine], the “percentage of inhibition of HER2 phosphorylation compared with the reference compound” value (HER2) was “higher percentage of inhibition of phosphorylation” and the inhibition at 1 µM (HER2; [1]) was 91.9%.
For O=S(=O)(NCCn1ccnn1)c1ccc(OCc2coc(C=Cc3ccc(S(F)(F)(F)(F)F)cc3)n2)cc1 [example 14, N-(2-[1,2,3]Triazol-1-yl-ethyl)-4-{2-[2-(4-pentafluorosulfanyl-phenyl)-vinyl]-oxazol-4-ylmethoxy}-benzenesulfonamide], the melting point was 170 to 172 °C, the “percentage of inhibition of HER2 phosphorylation compared with the reference compound” value (HER2) was “higher percentage of inhibition of phosphorylation” and the inhibition at 1 µM (HER2; [1]) was 71.7%.
For FS(F)(F)(F)(F)c1ccc(/C=C/c2nc(COc3ccc(CCCCn4ccnn4)cc3)co2)cc1 [example 4, 1-[4-(4-{2-[(E)-2-(-4-Pentafluorosulfanyl-phenyl)-vinyl]-oxazol-4-ylmethoxy}-phenyl)-butyl]-1H-[1,2,3]triazole], the “percentage of inhibition of HER2 phosphorylation compared with the reference compound” value (HER2) was “higher percentage of inhibition of phosphorylation” and the inhibition at 1 µM (HER2; [1]) was 86.1%.
With FS(F)(F)(F)(F)c1ccc(C=Cc2nc(COc3ccc(C=CCCn4ccnn4)cc3)co2)cc1 [example 12, 1-[4-(4-{2-[2-(4-Pentafluorosulfanyl-phenyl)-vinyl]-oxazol-4-ylmethoxy}-phenyl)-but-3-enyl]-1H-[1,2,3]triazole] the “percentage of inhibition of HER2 phosphorylation compared with the reference compound” value (HER2) was “higher percentage of inhibition of phosphorylation” and the inhibition at 1 µM (HER2; [1]) was 68.8%.
In the case of FS(F)(F)(F)(F)c1ccc(C=Cc2nc(COc3ccc(CCCCn4ccnc4)cc3)co2)cc1 [example 1, 4-[4-(4-Imidazol-1-yl-butyl)-phenoxymethyl]-2-[2-(4-pentafluorosulfanyl-phenyl)-vinyl]-oxazole], the “percentage of inhibition of HER2 phosphorylation compared with the reference compound” value (HER2) is reported as “higher percentage of inhibition of phosphorylation” and the inhibition at 1 µM (HER2; [1]) is reported as 87.5%.
